Target: T1, hSK1 channels (Homo sapiens, UniProt Q92952)
T1 construct: expressed in transfected cells; host or cells: HEK293
Assay: whole-cell patch-clamp recording of ionic current through SK channels (subtype 1) in HEK293 cells expressing hSK1
Format: cell-based
Conditions: Stimulating Concentration required for increasing the baseline current by 100%
Protocol: The ionic current through small-conductance Ca^2+-activated K^+ channels (SK channels, subtype 1) is recorded using the whole-cell configuration of the patch-clamp technique in a classic patch-clamp set-up using HEK293 tissue culture cells expressing hSK1 channels as described in e.g. WO 2006/100212.
The SC100 value determined is defined as the Stimulating Concentration required for increasing the baseline current by 100%. The below SC100 values are an indication of the SK1 activating properties of the compounds of the invention.

Structure (SMILES) | SC100
CON=CNc1nc2nccc(C(C)Oc3ccccc3C)n2n1 (centres unmarked) [Example 1, N-{7-[1-(2-Methylphenoxy)ethyl]-[1,2,4]triazolo[1,5-a]pyrimidin-2-yl}-N′-methoxy-formamidine] | 0.02 µM
CON=CNc1nc2nccc(C(C)Oc3ccccc3)n2n1 (centres unmarked) [Example A, N-{7-[1-(Phenoxy)ethyl]-[1,2,4]triazolo[1,5-a]pyrimidin-2-yl}-N′-methoxy-formamidine] | 0.20 µM

— US8765770B2, “Substituted [1,2,4]triazolo[1,5-a]pyrimidines and their use as potassium channel modulators” (Ataxion, Inc., priority 2009, dated 2014)
